The text below walks through data of patent US8592448B2 (OSI Pharmaceuticals, LLC, priority 2008, dated 2013).

Like-named read-outs stand apart in the source and are kept apart here.

In assay [1] the target is T1, Ron (Homo sapiens, UniProt Q04912).
T1 construct: purchased Invitrogen
Nature of the assay: Ron kinase assay (Invitrogen Z′-LYTE kinase assay platform). Particulars: Z′-LYTE kinase assay at Invitrogen, ATP concentration of 100 μM. It counts as biochemical. The protocol: (§1) The activities of exemplary compounds of the present invention against Ron and c-Met determined at Invitrogen using the Z′-LYTE™ kinase assay platform are shown in Table 1: A, IC50≦0.1 μM; B, 0.1 μM<IC50≦1 μM; C, 1 μM<IC50≦10 μM; D, IC50>10 μM. The assays were conducted at an ATP concentration of 100 μM. The Example # of Table 1 corresponds to the compound example number as illustrated in the Examples section.

For assay [2], the target named is T2, c-Met (Homo sapiens, UniProt P08581).
T2 construct: purchased Invitrogen
T2 sequence (P08581 25-1390): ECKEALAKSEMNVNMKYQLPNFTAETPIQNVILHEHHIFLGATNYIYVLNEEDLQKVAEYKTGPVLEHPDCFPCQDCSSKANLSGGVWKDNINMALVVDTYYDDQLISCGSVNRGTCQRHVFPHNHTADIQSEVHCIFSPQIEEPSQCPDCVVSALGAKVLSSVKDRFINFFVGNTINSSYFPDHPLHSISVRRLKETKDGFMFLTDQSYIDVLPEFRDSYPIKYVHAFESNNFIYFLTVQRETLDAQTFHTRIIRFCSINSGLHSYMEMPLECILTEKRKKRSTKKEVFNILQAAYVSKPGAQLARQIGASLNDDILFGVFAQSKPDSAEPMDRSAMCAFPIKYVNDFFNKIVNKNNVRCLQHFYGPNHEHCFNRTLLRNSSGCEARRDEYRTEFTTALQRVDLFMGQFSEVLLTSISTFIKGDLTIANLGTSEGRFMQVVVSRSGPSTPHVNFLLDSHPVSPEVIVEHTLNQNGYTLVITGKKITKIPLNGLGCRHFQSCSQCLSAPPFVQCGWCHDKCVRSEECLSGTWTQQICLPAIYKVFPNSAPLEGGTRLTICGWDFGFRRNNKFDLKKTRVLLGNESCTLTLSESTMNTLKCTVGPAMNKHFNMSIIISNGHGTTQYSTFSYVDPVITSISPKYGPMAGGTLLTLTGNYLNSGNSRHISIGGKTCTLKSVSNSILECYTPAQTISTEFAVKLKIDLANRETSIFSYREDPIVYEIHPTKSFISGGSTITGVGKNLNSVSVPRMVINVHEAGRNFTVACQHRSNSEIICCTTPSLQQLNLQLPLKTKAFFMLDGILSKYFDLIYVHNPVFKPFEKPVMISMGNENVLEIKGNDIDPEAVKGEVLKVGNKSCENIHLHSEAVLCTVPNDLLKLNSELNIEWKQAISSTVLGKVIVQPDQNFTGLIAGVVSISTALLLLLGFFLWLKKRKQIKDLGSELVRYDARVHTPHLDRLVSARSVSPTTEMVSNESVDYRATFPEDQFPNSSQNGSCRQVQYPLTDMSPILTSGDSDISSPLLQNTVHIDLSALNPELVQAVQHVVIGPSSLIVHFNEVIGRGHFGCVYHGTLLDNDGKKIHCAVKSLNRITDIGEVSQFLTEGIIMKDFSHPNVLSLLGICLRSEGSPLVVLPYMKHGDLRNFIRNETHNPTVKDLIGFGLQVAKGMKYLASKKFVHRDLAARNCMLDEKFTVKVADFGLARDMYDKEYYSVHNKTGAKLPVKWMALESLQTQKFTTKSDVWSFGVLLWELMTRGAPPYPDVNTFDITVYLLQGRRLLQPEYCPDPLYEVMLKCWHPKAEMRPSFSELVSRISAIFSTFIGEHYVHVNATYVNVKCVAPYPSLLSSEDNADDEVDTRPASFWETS
In words: c-Met kinase assay (Invitrogen Z′-LYTE kinase assay platform). The class given is biochemical. Particulars: Z′-LYTE kinase assay at Invitrogen, ATP concentration of 100 μM. On the procedure: as §1

The target of assay [3] is T3, phosphorylated c-MET (Homo sapiens, UniProt P08581).
T3 construct: endogenous in cells; host or cells: MKN45
T3 sequence (P08581 25-1390): as above
In words: c-MET cell mechanistic assay (phosphorylated c-MET in MKN45 cells). Particulars: MKN45 cell line, four hours incubation, phosphorylated c-MET levels, at least duplicate experiments; read-out: Met mech IC50. The class given is cell-based. The method, boiled down:
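MKN45 cells were treated 4 h at 37 °C with a 6-point dilution series (typically 10 μM to 3 nM; final 0.5% DMSO). Phospho-c-MET (pY1230/1234/1235) in lysates was measured by capture ELISA with HRP read-out at 450 nm. IC50 came from a four-parameter fit of percent of DMSO control.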

Assay [4] deals with MKN45 cells. In words: MKN45 cell proliferation assay (CellTiter-Glo). The class given is cell-based. Particulars: MKN45 cell line, 3 days incubation, at least duplicate experiments, read-out: Prolif. IC50. The method, boiled down: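 MKN45 cells (5000/well, RPMI + 10% FCS) plated overnight, then exposed to 8-point dilution series, typically 10 μM to 0.6 nM, in 0.1% DMSO for 3 days at 37 °C. CellTiter-Glo luminescence as % of DMSO control; IC50 from four-parameter fit, at least duplicate experiments.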

T1 sequence (Q04912 25-1400): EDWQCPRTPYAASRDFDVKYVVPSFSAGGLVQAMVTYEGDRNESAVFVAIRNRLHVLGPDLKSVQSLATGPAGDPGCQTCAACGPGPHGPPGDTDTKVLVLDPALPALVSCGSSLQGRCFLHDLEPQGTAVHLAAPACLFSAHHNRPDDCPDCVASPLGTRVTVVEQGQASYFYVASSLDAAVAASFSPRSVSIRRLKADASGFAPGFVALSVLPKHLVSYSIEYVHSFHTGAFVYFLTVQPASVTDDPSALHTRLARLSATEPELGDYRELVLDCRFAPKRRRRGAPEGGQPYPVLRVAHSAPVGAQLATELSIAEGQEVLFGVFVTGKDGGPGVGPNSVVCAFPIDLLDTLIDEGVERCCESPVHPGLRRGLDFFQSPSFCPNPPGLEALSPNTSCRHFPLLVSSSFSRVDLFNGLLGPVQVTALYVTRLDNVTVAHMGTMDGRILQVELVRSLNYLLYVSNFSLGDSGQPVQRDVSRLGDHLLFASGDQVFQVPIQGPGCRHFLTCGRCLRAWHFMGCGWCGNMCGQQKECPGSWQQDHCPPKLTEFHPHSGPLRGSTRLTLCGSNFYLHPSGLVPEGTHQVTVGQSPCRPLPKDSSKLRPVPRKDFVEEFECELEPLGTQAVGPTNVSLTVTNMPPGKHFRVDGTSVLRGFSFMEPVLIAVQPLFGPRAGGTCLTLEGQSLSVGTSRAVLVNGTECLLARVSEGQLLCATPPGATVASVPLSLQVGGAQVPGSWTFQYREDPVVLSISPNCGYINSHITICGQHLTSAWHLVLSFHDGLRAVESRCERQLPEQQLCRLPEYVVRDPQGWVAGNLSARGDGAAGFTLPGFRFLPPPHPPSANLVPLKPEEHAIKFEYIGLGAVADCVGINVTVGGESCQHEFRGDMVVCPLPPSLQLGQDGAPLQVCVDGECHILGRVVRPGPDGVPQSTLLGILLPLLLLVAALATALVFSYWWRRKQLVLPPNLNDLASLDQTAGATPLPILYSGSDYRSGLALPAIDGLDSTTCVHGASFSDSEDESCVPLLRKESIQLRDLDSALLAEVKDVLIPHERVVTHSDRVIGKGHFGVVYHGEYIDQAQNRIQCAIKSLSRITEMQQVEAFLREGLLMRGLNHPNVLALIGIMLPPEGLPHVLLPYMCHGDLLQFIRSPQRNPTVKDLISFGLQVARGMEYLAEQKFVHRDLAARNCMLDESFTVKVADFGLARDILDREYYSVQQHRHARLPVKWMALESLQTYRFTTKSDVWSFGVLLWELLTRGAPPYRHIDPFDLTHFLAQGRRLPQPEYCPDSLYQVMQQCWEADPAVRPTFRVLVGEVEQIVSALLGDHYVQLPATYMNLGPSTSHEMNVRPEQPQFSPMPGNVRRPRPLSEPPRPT

Usually IC50 stands for the concentration that gives 50% inhibition. As for `CC(c1c(Cl)cccc1Cl)c1c[nH]c2ncc(-c3cnn(C4CCNCC4)c3)cc12` (centres unmarked) [Example 1, 3-[1-(2,6-Dichlorophenyl)ethyl]-5-(1-piperidin-4-yl-1H-pyrazol-4-yl)-1H-pyrrolo[2,3-b]pyridine], the IC50 is at most 100 nM in assay [1]; at most 100 nM in assay [2]; at most 100 nM in assay [3]; 100 to 1000 nM in assay [4] (Homo sapiens, MKN-45, 72 h).
`CC(c1c(Cl)ccc(F)c1Cl)c1c[nH]c2ncc(-c3cnn(C4CCNCC4)c3)cc12` (centres unmarked) [Example 2, 3-[1-(2,6-Dichloro-3-fluorophenyl)ethyl]-5-(1-piperidin-4-yl-1H-pyrazol-4-yl)-1H-pyrrolo[2,3-b]pyridine]: the IC50 in assay [1] was at most 100 nM; in assay [2], at most 100 nM; in assay [3], at most 100 nM; in assay [4] (Homo sapiens, MKN-45, 72 h), at most 100 nM.
Turning to `CC(=O)N1CC(n2cc(-c3cnc4[nH]cc(C(C)c5c(Cl)ccc(F)c5Cl)c4c3)cn2)C1` (centres unmarked) [Example 58, 1-[3-(4-{3-[1-(2,6-Dichloro-3-fluorophenyl)-ethyl]-1H-pyrrolo[2,3-b]pyridin-5-yl}-pyrazol-1-yl)-azetidin-1-yl]-ethanone], the IC50 is at most 100 nM in assay [3] and 100 to 1000 nM in assay [4] (Homo sapiens, MKN-45, 72 h).
Consider `CC(c1c(Cl)ccc(F)c1Cl)c1c[nH]c2ncc(-c3cnn(C4CN(C(=O)N(C)C)C4)c3)cc12` (centres unmarked) [Example 59, 3-(4-{3-[1-(2,6-Dichloro-3-fluorophenyl)ethyl]-1H-pyrrolo[2,3-b]pyridin-5-yl}-pyrazol-1-yl)-azetidine-1-carboxylic acid dimethylamide], for which the IC50 in assay [3] fell in the range of 100 to 1000 nM; in assay [4] (Homo sapiens, MKN-45, 72 h) it was 100 to 1000 nM.
In the case of `CC(c1c(Cl)ccc(F)c1Cl)c1c[nH]c2ncc(-c3cnn(C(C)(C)C(=O)O)c3)cc12` (centres unmarked) [Example 61, 2-(4-{3-[1-(2,6-Dichloro-3-fluorophenyl)ethyl]-1H-pyrrolo[2,3-b]pyridin-5-yl}-pyrazol-1-yl)-2-methylpropionic acid], the IC50 in assay [3] lay in the range of 1000 to 10000 nM; in assay [4] (Homo sapiens, MKN-45, 72 h), 1000 to 10000 nM.
For the compound `CNC(=O)C(C)(C)n1cc(-c2cnc3[nH]cc(C(C)c4c(Cl)ccc(F)c4Cl)c3c2)cn1` (centres unmarked) [Example 62, 2-(4-{3-[1-(2,6-Dichloro-3-fluorophenyl)ethyl]-1H-pyrrolo[2,3-b]pyridin-5-yl}-pyrazol-1-yl)-N-methylisobutyramide], the IC50 was at most 100 nM in assay [3] and 100 to 1000 nM in assay [4] (Homo sapiens, MKN-45, 72 h).
For the compound `CC(c1c(Cl)ccc(F)c1Cl)c1c[nH]c2ncc(-c3cnn(C(C)(C)C(=O)N(C)C)c3)cc12` (centres unmarked) [Example 63, 2-(4-{3-[1-(2,6-Dichloro-3-fluorophenyl)ethyl]-1H-pyrrolo[2,3-b]pyridin-5-yl}-pyrazol-1-yl)-N,N-dimethylisobutyramide], the half-maximal inhibitory concentration (IC50) in assay [3] is at most 100 nM; in assay [4] (Homo sapiens, MKN-45, 72 h), 100 to 1000 nM.
Turning to `CC(c1c(Cl)ccc(F)c1Cl)c1c[nH]c2ncc(-c3cnn(C(C)(C)C(N)=O)c3)cc12` (centres unmarked) [Example 64, 2-(4-{3-[1-(2,6-Dichloro-3-fluorophenyl)ethyl]-1H-pyrrolo[2,3-b]pyridin-5-yl}-pyrazol-1-yl)-isobutyramide], the IC50 is at most 100 nM in assay [3] and 100 to 1000 nM in assay [4] (Homo sapiens, MKN-45, 72 h).
As for `CC(c1c(Cl)ccc(F)c1Cl)c1c[nH]c2ncc(-c3cnn(C(C)(C)CO)c3)cc12` (centres unmarked) [Example 65, 2-(4-{3-[1-(2,6-Dichloro-3-fluorophenyl)ethyl]-1H-pyrrolo[2,3-b]pyridin-5-yl}-pyrazol-1-yl)-2-methylpropan-1-ol], the IC50 in assay [3] was at most 100 nM; in assay [4] (Homo sapiens, MKN-45, 72 h) it was 100 to 1000 nM.
For `C[C@H](c1c(Cl)ccc(F)c1Cl)c1c[nH]c2ncc(C3=CCCN(C(N)=O)C3)cc12` [Example 67, 5-{3-[(S)-1-(2,6-Dichloro-3-fluorophenyl)ethyl]-1H-pyrrolo[2,3-b]pyridin-5-yl}-3,6-dihydro-2H-pyridine-1-carboxamide], the IC50 in assay [3] is at most 100 nM; in assay [4] (Homo sapiens, MKN-45, 72 h), 100 to 1000 nM.
Turning to `C[C@H](c1c(Cl)ccc(F)c1Cl)c1c[nH]c2ncc(-c3ccc(C(=O)N4CCNCC4)cc3)cc12` [Example 69, (4-{3-[(S)-1-(2,6-Dichloro-3-fluorophenyl)ethyl]-1H-pyrrolo[2,3-b]pyridin-5-yl}phenyl)piperazin-1-ylmethanone], the IC50 in assay [3] is at most 100 nM; in assay [4] (Homo sapiens, MKN-45, 72 h), 100 to 1000 nM.
Consider `CC(c1c(Cl)ccc(F)c1Cl)c1c[nH]c2ncc(-c3cnn(C4CCN(C=O)CC4)c3)cc12` (centres unmarked) [Example 71, 4-(4-{3-[1-(2,6-Dichloro-3-fluorophenyl)ethyl]-1H-pyrrolo[2,3-b]pyridin-5-yl}-pyrazol-1-yl)-piperidine-1-carbaldehyde], for which the IC50 in assay [1] was 100 to 1000 nM; in assay [2] it was at most 100 nM; in assay [4] it was at most 100 nM.
In the case of `C[C@H](c1c(Cl)ccc(F)c1Cl)c1c[nH]c2ncc(-c3cnn(C4CCN(C(N)=O)CC4)c3)cc12` [Example 72, 4-(4-{3-[(S)-1-(2,6-Dichloro-3-fluorophenyl)ethyl]-1H-pyrrolo[2,3-b]pyridin-5-yl}-pyrazol-1-yl)-piperidine-1-carboxamide], the IC50 in assay [3] is at most 100 nM; in assay [4] (Homo sapiens, MKN-45, 72 h) it was at most 100 nM.
Consider `C[C@H](c1c(Cl)ccc(F)c1Cl)c1c[nH]c2ncc(-c3cnn(C4CCN(S(C)(=O)=O)CC4)c3)cc12` [Example 73, 3-[(S)-1-(2,6-Dichloro-3-fluorophenyl)ethyl]-5-[1-(1-methane-sulfonylpiperidin-4-yl)-1H-pyrazol-4-yl]-1H-pyrrolo[2,3-b]pyridine], for which the IC50 in assay [3] was at most 100 nM; in assay [4] (Homo sapiens, MKN-45, 72 h), at most 100 nM.
For the compound `CNC(=O)Cn1cc(-c2cnc3[nH]cc([C@H](C)c4c(Cl)ccc(F)c4Cl)c3c2)cn1` [Example 76, 2-(4-{3-[(S)-1-(2,6-Dichloro-3-fluorophenyl)ethyl]-1H-pyrrolo[2,3-b]-pyridin-5-yl}-pyrazol-1-yl)-N-methylacetamide], the IC50 in assay [3] was at most 100 nM; in assay [4] (Homo sapiens, MKN-45, 72 h), at most 100 nM.
With `C[C@H](c1c(Cl)ccc(F)c1Cl)c1c[nH]c2ncc(-c3cnn(CC(N)=O)c3)cc12` [Example 77, 2-(4-{3-[(S)-1-(2,6-Dichloro-3-fluorophenyl)ethyl]-1H-pyrrolo[2,3-b]-pyridin-5-yl}-pyrazol-1-yl)-acetamide], the IC50 in assay [3] was at most 100 nM; in assay [4] (Homo sapiens, MKN-45, 72 h) it was at most 100 nM.
For the compound `C[C@H](c1c(Cl)ccc(F)c1Cl)c1c[nH]c2ncc(-c3cnn(CC(=O)N4CCOCC4)c3)cc12` [Example 78, 2-(4-{3-[(S)-1-(2,6-Dichloro-3-fluorophenyl)ethyl]-1H-pyrrolo[2,3-b]pyridin-5-yl}-pyrazol-1-yl)-1-morpholin-4-ylethanone], the IC50 in assay [3] was at most 100 nM; in assay [4] (Homo sapiens, MKN-45, 72 h), at most 100 nM.
For the compound `C[C@H](c1c(Cl)ccc(F)c1Cl)c1c[nH]c2ncc(-c3cnn(CC(=O)N4CCN(C)CC4)c3)cc12` [Example 79, 2-(4-{3-[(S)-1-(2,6-Dichloro-3-fluorophenyl)ethyl]-1H-pyrrolo[2,3-b]-pyridin-5-yl}-pyrazol-1-yl)-1-(4-methylpiperazin-1-yl)ethanone], the IC50 in assay [3] is at most 100 nM; in assay [4] (Homo sapiens, MKN-45, 72 h) it was at most 100 nM.
`C[C@H](c1c(Cl)ccc(F)c1Cl)c1c[nH]c2ncc(-c3cnn(C4CCNCC4)c3)cc12` [Example 80, 3-[(S)-1-(2,6-Dichloro-3-fluorophenyl)ethyl]-5-(1-piperidin-4-yl-1H-pyrazol-4-yl)-1H-pyrrolo[2,3-b]pyridine]: the IC50 in assay [3] was at most 100 nM; in assay [4] (Homo sapiens, MKN-45, 72 h), at most 100 nM.
Take `C[C@@H](c1c(Cl)ccc(F)c1Cl)c1c[nH]c2ncc(-c3cnn(C4CCNCC4)c3)cc12` [Example 81, 3-[(R)-1-(2,6-Dichloro-3-fluorophenyl)ethyl]-5-(1-piperidin-4-yl-1H-pyrazol-4-yl)-1H-pyrrolo[2,3-b]pyridine]: the IC50 fell in the range of 100 to 1000 nM in assay [3] and 100 to 1000 nM in assay [4] (Homo sapiens, MKN-45, 72 h).
For `C[C@H](c1c(Cl)ccc(F)c1Cl)c1c[nH]c2ncc(-c3cnn(C(C)(C)CO)c3)cc12` [Example 85, 2-(4-{3-[(S)-1-(2,6-Dichloro-3-fluorophenyl)ethyl]-1H-pyrrolo[2,3-b]-pyridin-5-yl}-pyrazol-1-yl)-2-methylpropan-1-ol], the concentration for half-maximal inhibition (IC50) in assay [3] is at most 100 nM; in assay [4] (Homo sapiens, MKN-45, 72 h), 100 to 1000 nM.
The like results for `CC(c1c(Cl)ccc(F)c1Cl)c1c[nH]c2ncc(-c3cccnc3)cc12` (centres unmarked) [Example 88, 3-[1-(2,6-Dichloro-3-fluorophenyl)ethyl]-5-pyridin-3-yl-1H-pyrrolo[2,3-b]pyridine] were, in that order, 100 to 1000 nM and 100 to 1000 nM.
For the compound `CC(c1c(Cl)ccc(F)c1Cl)c1c[nH]c2ncc(-c3cnn(C4CCC(=O)CC4)c3)cc12` (centres unmarked) [Example 89, 4-(4-{3-[1-(2,6-Dichloro-3-fluorophenyl)ethyl]-1H-pyrrolo[2,3-b]pyridin-5-yl}-pyrazol-1-yl)cyclohexanone], the IC50 in assay [3] was at most 100 nM; in assay [4] (Homo sapiens, MKN-45, 72 h), at most 100 nM.
With `C[C@H](c1c(Cl)ccc(F)c1Cl)c1c[nH]c2ncc(-c3cnn(C[C@H](O)CO)c3)cc12` [Example 90, (S)-3-(4-{3-[(S)-1-(2,6-Dichloro-3-fluorophenyl)ethyl]-1H-pyrrolo[2,3-b]pyridin-5-yl}-pyrazol-1-yl)-propane-1,2-diol], the IC50 is at most 100 nM in assay [3] and at most 100 nM in assay [4] (Homo sapiens, MKN-45, 72 h).
